Measured values: the kinase profiling compilation of Christmann-Franck et al. (2016)

Tests used:
Experiment in all cases: radiometric filter-binding kinase assay, Kinaseprofiler
SRC (human) = SRC (human) (UniProt P12931); details: ATP 200 µM
KDR (human) = KDR (human) (UniProt P35968); details: ATP 90 µM
EPHA5 (human) = EPHA5 (human) (UniProt P54756); details: ATP 10 µM
PRKCI (human) = PRKCI (human) (UniProt P41743); details: ATP 155 µM
PTK2B (human) = PTK2B (human) (UniProt Q14289); details: ATP 90 µM
Chain of PTK2B (human) (Q14289 whole entry, looked up): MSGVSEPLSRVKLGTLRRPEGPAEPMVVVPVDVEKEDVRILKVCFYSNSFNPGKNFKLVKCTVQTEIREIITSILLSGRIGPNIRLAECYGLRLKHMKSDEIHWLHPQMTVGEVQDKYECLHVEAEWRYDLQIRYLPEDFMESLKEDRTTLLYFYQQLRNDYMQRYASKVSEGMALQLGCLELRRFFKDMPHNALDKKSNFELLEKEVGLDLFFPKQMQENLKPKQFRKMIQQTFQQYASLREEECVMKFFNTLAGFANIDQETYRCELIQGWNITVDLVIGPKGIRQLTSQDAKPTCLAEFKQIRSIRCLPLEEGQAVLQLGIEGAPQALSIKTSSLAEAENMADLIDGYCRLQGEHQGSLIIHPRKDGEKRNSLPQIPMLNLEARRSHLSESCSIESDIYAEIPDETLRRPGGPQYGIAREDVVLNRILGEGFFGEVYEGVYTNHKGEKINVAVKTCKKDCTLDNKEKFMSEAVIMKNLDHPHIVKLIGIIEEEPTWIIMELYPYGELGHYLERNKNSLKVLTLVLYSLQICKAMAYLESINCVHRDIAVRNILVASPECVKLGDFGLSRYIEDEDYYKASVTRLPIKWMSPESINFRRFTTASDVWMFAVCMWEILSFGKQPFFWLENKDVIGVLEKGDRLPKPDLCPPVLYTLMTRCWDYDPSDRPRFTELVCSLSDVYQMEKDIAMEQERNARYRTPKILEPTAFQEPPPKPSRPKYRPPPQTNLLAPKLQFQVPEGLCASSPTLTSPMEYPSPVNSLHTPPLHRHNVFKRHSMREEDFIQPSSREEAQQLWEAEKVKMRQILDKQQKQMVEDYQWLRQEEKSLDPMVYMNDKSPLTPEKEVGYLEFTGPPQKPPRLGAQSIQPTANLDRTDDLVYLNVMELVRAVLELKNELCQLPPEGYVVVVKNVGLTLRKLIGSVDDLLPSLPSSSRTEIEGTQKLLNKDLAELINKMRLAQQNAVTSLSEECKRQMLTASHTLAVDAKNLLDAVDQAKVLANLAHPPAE

FLT1 (human) = FLT1 (human) (UniProt P17948); details: ATP 200 µM
MTOR FKBP1A (human) = MTOR FKBP1A (human) (UniProt P42345+P62942); details: ATP 45 µM
STK33 (human) = STK33 (human) (UniProt Q9BYT3); details: ATP 155 µM
CDK2 CCNE1 (human) = CDK2 CCNE1 (human) (UniProt P24941+P24864); details: ATP 120 µM
ABL1 (human) = ABL1 (human) (UniProt P00519); details: ATP 10 µM
CSNK1G2 (human) = CSNK1G2 (human) (UniProt P78368); details: ATP 10 µM
EPHA2 (human) = EPHA2 (human) (UniProt P29317); details: ATP 155 µM
PRKCB1 (human) = PRKCB1 (human) (UniProt P05771); details: ATP 10 µM
[1] = target: JAK2 JH1 catalytic (human) (UniProt O60674); details: ATP 45 µM
ERBB4 (human) = ERBB4 (human) (UniProt Q15303); details: ATP 15 µM
TBK1 (human) = TBK1 (human) (UniProt Q9UHD2); details: ATP 155 µM
Chain of TBK1 (human) (Q9UHD2 whole entry, looked up): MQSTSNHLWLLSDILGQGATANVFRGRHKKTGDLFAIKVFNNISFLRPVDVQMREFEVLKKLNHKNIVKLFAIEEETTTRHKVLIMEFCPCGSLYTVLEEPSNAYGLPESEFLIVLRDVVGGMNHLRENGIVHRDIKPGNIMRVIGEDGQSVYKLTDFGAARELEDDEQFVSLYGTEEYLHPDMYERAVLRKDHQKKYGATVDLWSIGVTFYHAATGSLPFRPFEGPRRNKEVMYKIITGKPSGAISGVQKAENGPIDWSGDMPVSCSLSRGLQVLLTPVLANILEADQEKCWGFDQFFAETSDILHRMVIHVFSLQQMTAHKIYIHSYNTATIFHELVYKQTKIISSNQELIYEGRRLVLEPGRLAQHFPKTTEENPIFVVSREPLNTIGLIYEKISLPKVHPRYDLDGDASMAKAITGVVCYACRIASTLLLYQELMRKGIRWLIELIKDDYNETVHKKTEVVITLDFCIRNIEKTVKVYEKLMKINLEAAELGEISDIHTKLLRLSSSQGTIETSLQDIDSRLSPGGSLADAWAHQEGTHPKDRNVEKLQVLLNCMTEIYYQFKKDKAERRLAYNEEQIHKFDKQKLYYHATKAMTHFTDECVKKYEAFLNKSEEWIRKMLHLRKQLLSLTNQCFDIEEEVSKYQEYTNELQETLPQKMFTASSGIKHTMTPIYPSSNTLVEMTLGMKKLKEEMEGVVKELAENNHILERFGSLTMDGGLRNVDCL

[2] = test system: SGK1 (human), O00141 [S422D]; details: ATP 90 µM
MAPK10 (human) = MAPK10 (human) (UniProt P53779); details: ATP 10 µM
TXK (human) = TXK (human) (UniProt P42681); details: ATP 200 µM
ABL2 (human) = ABL2 (human) (UniProt P42684); details: ATP 45 µM
[3] = target: PRKAA1 PRKAB1 PRKAG1 (human) (UniProt P54619+Q13131+Q9Y478); details: ATP 45 µM
MAPK13 (human) = MAPK13 (human) (UniProt O15264); details: ATP 15 µM
CDK6 CCND3 (human) = CDK6 CCND3 (human) (UniProt P30281+Q00534); details: ATP 200 µM
PRKD2 (human) = PRKD2 (human) (UniProt Q9BZL6); details: ATP 155 µM
NEK3 (human) = NEK3 (human) (UniProt P51956); details: ATP 120 µM
Chain of NEK3 (human) (P51956 whole entry, looked up): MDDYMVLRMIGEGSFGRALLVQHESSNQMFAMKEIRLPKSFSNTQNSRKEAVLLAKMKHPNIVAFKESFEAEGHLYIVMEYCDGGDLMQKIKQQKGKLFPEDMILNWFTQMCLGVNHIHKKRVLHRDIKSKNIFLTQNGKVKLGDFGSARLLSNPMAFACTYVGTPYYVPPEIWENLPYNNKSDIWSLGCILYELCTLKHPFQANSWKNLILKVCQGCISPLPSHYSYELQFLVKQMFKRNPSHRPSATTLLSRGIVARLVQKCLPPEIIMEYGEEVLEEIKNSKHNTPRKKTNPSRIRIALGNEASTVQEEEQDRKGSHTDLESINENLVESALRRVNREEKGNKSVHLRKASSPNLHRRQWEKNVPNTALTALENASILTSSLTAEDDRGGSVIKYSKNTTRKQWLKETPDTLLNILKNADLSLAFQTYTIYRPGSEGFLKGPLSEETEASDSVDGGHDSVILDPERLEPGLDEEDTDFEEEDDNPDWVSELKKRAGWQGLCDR

PRKCZ (human) = PRKCZ (human) (UniProt Q05513); details: ATP 15 µM
PRKACA (human) = PRKACA (human) (UniProt P17612); details: ATP 10 µM
[4] = target: PRKAA2 PRKAB1 PRKAG1 (human) (UniProt P54619+P54646+Q9Y478); details: ATP 45 µM
RPS6KA2 KD1 KD2 (human) = RPS6KA2 KD1 KD2 (human) (UniProt Q15349); details: ATP 10 µM
[5] = target: JAK3 JH1 catalytic (human) (UniProt P52333); details: ATP 10 µM
Chain of JAK3 JH1 catalytic (human) (P52333 whole entry, looked up): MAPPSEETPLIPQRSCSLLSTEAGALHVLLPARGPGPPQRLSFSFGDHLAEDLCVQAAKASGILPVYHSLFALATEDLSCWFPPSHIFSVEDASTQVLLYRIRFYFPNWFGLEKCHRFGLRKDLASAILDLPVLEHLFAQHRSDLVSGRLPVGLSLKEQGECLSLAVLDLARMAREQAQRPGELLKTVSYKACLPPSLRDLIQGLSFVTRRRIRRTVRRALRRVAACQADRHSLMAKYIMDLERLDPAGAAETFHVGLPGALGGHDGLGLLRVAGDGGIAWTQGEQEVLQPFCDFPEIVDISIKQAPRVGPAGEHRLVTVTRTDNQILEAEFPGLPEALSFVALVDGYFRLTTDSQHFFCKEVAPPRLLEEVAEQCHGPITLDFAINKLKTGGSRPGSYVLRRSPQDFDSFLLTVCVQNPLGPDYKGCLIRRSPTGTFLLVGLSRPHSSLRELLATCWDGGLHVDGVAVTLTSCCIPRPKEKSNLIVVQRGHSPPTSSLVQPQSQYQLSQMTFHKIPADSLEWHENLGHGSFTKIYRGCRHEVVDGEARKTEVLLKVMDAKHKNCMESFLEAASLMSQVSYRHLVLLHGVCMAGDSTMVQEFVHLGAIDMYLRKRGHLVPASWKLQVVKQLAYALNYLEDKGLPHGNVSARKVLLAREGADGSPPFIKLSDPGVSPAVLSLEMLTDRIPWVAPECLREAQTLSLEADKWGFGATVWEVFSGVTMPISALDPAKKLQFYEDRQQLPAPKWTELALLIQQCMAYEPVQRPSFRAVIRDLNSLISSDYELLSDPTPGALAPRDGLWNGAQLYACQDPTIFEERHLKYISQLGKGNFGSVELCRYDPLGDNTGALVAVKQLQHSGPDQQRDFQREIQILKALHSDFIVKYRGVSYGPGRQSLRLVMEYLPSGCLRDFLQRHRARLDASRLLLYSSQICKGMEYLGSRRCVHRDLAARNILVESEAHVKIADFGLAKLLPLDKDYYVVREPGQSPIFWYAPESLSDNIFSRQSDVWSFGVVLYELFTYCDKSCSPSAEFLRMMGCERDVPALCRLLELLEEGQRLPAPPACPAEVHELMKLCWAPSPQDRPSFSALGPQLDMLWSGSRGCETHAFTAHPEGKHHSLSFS

PIM1 (human) = PIM1 (human) (UniProt P11309); details: ATP 90 µM
NEK2 (human) = NEK2 (human) (UniProt P51955); details: ATP 120 µM

Chain of PRKCI (human) (P41743 whole entry, looked up): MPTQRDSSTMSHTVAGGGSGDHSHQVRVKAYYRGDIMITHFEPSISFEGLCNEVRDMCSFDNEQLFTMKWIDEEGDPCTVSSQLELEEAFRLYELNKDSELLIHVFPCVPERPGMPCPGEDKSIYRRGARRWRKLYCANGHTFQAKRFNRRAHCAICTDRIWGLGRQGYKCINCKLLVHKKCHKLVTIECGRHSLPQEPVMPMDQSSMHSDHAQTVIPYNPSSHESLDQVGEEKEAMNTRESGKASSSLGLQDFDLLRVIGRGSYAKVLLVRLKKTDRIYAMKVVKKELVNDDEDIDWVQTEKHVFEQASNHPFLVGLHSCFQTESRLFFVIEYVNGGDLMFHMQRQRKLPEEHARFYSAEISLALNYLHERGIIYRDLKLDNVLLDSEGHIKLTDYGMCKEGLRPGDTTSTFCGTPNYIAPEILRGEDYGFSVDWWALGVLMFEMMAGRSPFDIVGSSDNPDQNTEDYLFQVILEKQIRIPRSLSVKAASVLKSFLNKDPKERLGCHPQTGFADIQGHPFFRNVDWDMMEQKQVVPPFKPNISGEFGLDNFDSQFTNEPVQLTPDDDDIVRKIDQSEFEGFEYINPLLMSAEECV
Chain of EPHA5 (human) (P54756 whole entry, looked up): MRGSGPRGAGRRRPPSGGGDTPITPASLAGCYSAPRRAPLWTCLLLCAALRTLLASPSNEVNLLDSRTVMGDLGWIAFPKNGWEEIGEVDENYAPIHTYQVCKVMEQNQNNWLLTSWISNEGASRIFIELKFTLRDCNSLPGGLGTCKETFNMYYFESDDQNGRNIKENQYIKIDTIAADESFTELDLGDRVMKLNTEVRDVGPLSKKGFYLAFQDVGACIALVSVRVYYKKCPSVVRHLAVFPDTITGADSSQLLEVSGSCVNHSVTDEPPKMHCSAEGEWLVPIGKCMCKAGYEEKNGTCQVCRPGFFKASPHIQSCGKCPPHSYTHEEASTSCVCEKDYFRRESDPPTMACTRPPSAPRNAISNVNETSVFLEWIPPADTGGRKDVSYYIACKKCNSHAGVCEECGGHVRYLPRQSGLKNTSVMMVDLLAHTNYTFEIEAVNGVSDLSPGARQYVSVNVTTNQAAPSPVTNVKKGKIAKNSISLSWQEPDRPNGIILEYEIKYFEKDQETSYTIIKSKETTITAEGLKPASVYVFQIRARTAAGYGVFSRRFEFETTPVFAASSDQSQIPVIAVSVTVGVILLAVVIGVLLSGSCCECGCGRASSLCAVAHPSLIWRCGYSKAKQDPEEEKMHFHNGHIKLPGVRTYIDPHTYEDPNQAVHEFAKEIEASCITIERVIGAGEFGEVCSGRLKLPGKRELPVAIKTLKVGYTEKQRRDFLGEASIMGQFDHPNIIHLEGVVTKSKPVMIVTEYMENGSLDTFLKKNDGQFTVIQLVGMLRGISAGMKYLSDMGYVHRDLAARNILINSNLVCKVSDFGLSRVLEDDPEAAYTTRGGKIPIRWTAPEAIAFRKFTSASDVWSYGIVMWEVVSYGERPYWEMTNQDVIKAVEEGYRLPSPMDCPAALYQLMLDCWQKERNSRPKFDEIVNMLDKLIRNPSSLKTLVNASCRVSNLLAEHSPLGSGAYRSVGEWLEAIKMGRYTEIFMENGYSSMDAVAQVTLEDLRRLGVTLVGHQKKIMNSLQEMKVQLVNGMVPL

Compound: O=C1Nc2ccccc2/C1=C1\Nc2ccccc2\C1=N/O
- residual activity (SRC (human); compound 1.0 µM): 35%
- residual activity (SRC (human); compound 10.0 µM): 5%
- residual activity (KDR (human); compound 1.0 µM): 4%
- residual activity (KDR (human); compound 10.0 µM): 1%
- residual activity (EPHA5 (human); compound 1.0 µM): 59%
- residual activity (EPHA5 (human); compound 10.0 µM): 9%
- residual activity (PRKCI (human); compound 1.0 µM): 96%
- residual activity (PRKCI (human); compound 10.0 µM): 105%
- residual activity (PTK2B (human); compound 1.0 µM): 14%
- residual activity (PTK2B (human); compound 10.0 µM): 2%
- residual activity (FLT1 (human); compound 1.0 µM): 1%
- residual activity (FLT1 (human); compound 10.0 µM): 0%
- residual activity (MTOR FKBP1A (human); compound 1.0 µM): 117%
- residual activity (MTOR FKBP1A (human); compound 10.0 µM): 89%
- residual activity (STK33 (human); compound 1.0 µM): 43%
- residual activity (STK33 (human); compound 10.0 µM): 8%
- residual activity (CDK2 CCNE1 (human); compound 1.0 µM): 6%
- residual activity (CDK2 CCNE1 (human); compound 10.0 µM): -1%
- residual activity (ABL1 (human); compound 1.0 µM): 49%
- residual activity (ABL1 (human); compound 10.0 µM): 16%
- residual activity (CSNK1G2 (human); compound 1.0 µM): 64%
- residual activity (CSNK1G2 (human); compound 10.0 µM): 20%
- residual activity (EPHA2 (human); compound 1.0 µM): 61%
- residual activity (EPHA2 (human); compound 10.0 µM): 16%
- residual activity (PRKCB1 (human); compound 1.0 µM): 93%
- residual activity (PRKCB1 (human); compound 10.0 µM): 94%
- residual activity ([1]; compound 1.0 µM): 92%
- residual activity ([1]; compound 10.0 µM): 11%
- residual activity (ERBB4 (human); compound 1.0 µM): 107%
- residual activity (ERBB4 (human); compound 10.0 µM): 99%
- residual activity (TBK1 (human); compound 1.0 µM): 9%
- residual activity (TBK1 (human); compound 10.0 µM): 1%
- residual activity ([2]; compound 1.0 µM): 59%
- residual activity ([2]; compound 10.0 µM): 28%
- residual activity (MAPK10 (human); compound 1.0 µM): 7%
- residual activity (MAPK10 (human); compound 10.0 µM): -2%
- residual activity (TXK (human); compound 1.0 µM): 45%
- residual activity (TXK (human); compound 10.0 µM): 11%
- residual activity (ABL2 (human); compound 1.0 µM): 30%
- residual activity (ABL2 (human); compound 10.0 µM): 28%
- residual activity ([3]; compound 1.0 µM): 2%
- residual activity ([3]; compound 10.0 µM): 0%
- residual activity (MAPK13 (human); compound 1.0 µM): 90%
- residual activity (MAPK13 (human); compound 10.0 µM): 82%
- residual activity (CDK6 CCND3 (human); compound 1.0 µM): 16%
- residual activity (CDK6 CCND3 (human); compound 10.0 µM): 5%
- residual activity (PRKD2 (human); compound 1.0 µM): 109%
- residual activity (PRKD2 (human); compound 10.0 µM): 98%
- residual activity (NEK3 (human); compound 1.0 µM): 86%
- residual activity (NEK3 (human); compound 10.0 µM): 94%
- residual activity (PRKCZ (human); compound 1.0 µM): 101%
- residual activity (PRKCZ (human); compound 10.0 µM): 98%
- residual activity (PRKACA (human); compound 1.0 µM): 90%
- residual activity (PRKACA (human); compound 10.0 µM): 54%
- residual activity ([4]; compound 1.0 µM): 1%
- residual activity ([4]; compound 10.0 µM): 3%
- residual activity (RPS6KA2 KD1 KD2 (human); compound 1.0 µM): 19%
- residual activity (RPS6KA2 KD1 KD2 (human); compound 10.0 µM): 4%
- residual activity ([5]; compound 1.0 µM): 21%
- residual activity ([5]; compound 10.0 µM): 2%
- residual activity (PIM1 (human); compound 1.0 µM): 76%
- residual activity (PIM1 (human); compound 10.0 µM): 47%
- residual activity (NEK2 (human); compound 1.0 µM): 93%
- residual activity (NEK2 (human); compound 10.0 µM): 83%
